In the kinase profiling compilation of Christmann-Franck et al. (2016):
“And” between values parts separate entries of the source, which are not always exact repeats. Identical values can stand only once.

Experiments:
Assay in all cases: KINOMEscan competition binding
Details in all cases: compound 10.0 µM
ANKK1 (human) = ANKK1 (human) (UniProt Q8NFD2)
AURKC (human) = AURKC (human) (UniProt Q9UQB9)
BMPR2 (human) = BMPR2 (human) (UniProt Q13873)
BRSK2 (human) = BRSK2 (human) (UniProt Q8IWQ3)
CDK4 CCND3 (human) = CDK4 CCND3 (human) (UniProt P11802+P30281)
CDKL5 (human) = CDKL5 (human) (UniProt O76039)
CSNK1G1 (human) = CSNK1G1 (human) (UniProt Q9HCP0)
CSNK2A2 (human) = CSNK2A2 (human) (UniProt P19784)
DAPK1 (human) = DAPK1 (human) (UniProt P53355)
DDR2 (human) = DDR2 (human) (UniProt Q16832)
DYRK2 (human) = DYRK2 (human) (UniProt Q92630)
DYRK2 (human), sequence (Q92630 whole entry, looked up): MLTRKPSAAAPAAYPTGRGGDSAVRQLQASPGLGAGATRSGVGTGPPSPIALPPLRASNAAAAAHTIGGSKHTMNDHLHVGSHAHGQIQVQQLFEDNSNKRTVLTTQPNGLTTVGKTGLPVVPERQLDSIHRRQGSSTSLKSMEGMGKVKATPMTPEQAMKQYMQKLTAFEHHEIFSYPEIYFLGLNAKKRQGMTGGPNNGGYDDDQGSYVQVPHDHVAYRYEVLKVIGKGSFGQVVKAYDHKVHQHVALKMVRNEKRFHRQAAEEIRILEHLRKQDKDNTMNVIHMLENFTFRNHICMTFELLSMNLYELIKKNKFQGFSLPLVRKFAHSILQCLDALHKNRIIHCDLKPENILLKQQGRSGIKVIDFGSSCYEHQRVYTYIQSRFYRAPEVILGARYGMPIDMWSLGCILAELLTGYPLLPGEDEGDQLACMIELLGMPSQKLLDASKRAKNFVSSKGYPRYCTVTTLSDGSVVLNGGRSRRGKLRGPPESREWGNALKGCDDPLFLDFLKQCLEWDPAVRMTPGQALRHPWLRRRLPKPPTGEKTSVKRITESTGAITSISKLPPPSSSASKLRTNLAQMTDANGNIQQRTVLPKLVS

EGFR (human) = EGFR (human) (UniProt P00533)
EPHA7 (human) = EPHA7 (human) (UniProt Q15375)
GSK3B (human) = GSK3B (human) (UniProt P49841)
HIPK1 (human) = HIPK1 (human) (UniProt Q86Z02)
HIPK1 (human), sequence (Q86Z02 whole entry, looked up): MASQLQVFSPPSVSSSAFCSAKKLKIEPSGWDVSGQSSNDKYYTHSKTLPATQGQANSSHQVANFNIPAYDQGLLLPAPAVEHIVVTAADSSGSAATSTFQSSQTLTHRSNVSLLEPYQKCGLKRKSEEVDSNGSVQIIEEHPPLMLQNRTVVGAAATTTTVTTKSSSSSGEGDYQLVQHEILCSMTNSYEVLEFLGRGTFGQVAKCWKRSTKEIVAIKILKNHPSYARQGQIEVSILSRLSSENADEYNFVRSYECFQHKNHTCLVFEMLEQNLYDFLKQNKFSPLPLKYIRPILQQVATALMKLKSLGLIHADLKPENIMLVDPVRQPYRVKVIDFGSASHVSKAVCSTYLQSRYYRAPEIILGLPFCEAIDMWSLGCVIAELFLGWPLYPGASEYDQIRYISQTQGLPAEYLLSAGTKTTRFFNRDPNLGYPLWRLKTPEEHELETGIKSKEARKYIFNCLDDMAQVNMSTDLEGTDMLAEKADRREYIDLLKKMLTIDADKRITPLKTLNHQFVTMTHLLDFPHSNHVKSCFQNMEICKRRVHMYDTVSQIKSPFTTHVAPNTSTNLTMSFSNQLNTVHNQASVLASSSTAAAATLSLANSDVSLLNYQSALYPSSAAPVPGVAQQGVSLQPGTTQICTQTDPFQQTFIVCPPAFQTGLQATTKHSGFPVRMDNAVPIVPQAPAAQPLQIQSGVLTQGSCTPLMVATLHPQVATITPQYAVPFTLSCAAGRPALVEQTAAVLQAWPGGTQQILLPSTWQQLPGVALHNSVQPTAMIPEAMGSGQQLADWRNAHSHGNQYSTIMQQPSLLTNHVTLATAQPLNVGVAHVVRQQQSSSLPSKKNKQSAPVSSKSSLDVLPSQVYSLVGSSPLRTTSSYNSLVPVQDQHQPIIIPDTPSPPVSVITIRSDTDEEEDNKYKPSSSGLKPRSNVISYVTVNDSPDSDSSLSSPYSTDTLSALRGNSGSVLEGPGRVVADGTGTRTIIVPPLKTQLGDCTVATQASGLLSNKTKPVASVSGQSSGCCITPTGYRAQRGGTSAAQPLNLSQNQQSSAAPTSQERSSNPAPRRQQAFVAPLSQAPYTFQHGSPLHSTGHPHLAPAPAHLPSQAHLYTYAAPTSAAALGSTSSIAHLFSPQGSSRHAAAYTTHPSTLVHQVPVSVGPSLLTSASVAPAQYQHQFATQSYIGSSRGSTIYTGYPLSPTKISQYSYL

HUNK (human) = HUNK (human) (UniProt P57058)
HUNK (human), sequence (P57058 whole entry, looked up): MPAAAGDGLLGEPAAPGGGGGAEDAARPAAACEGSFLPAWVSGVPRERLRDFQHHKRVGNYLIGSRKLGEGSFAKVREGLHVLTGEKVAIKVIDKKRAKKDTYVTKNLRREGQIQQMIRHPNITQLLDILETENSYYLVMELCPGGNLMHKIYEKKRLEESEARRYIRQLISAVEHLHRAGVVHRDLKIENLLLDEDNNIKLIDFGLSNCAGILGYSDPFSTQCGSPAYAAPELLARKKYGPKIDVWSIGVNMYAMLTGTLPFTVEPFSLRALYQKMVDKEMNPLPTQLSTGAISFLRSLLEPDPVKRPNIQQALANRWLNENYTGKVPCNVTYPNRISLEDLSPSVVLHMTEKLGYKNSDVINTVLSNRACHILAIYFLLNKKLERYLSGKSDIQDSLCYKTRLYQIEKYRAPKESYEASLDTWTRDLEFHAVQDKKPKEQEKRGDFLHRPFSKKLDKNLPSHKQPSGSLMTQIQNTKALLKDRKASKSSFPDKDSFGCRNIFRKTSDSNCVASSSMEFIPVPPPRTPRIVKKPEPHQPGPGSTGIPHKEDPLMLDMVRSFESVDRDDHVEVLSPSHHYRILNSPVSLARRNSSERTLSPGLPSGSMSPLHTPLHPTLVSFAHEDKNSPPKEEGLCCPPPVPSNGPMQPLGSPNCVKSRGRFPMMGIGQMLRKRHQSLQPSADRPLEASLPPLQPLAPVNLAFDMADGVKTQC

[1] = target: JAK3 JH1 catalytic (human) (UniProt P52333)
KDR (human) = KDR (human) (UniProt P35968)
MAP3K5 (human) = MAP3K5 (human) (UniProt Q99683)
MAP4K4 (human) = MAP4K4 (human) (UniProt O95819)
MAP4K4 (human), sequence (O95819 whole entry, looked up): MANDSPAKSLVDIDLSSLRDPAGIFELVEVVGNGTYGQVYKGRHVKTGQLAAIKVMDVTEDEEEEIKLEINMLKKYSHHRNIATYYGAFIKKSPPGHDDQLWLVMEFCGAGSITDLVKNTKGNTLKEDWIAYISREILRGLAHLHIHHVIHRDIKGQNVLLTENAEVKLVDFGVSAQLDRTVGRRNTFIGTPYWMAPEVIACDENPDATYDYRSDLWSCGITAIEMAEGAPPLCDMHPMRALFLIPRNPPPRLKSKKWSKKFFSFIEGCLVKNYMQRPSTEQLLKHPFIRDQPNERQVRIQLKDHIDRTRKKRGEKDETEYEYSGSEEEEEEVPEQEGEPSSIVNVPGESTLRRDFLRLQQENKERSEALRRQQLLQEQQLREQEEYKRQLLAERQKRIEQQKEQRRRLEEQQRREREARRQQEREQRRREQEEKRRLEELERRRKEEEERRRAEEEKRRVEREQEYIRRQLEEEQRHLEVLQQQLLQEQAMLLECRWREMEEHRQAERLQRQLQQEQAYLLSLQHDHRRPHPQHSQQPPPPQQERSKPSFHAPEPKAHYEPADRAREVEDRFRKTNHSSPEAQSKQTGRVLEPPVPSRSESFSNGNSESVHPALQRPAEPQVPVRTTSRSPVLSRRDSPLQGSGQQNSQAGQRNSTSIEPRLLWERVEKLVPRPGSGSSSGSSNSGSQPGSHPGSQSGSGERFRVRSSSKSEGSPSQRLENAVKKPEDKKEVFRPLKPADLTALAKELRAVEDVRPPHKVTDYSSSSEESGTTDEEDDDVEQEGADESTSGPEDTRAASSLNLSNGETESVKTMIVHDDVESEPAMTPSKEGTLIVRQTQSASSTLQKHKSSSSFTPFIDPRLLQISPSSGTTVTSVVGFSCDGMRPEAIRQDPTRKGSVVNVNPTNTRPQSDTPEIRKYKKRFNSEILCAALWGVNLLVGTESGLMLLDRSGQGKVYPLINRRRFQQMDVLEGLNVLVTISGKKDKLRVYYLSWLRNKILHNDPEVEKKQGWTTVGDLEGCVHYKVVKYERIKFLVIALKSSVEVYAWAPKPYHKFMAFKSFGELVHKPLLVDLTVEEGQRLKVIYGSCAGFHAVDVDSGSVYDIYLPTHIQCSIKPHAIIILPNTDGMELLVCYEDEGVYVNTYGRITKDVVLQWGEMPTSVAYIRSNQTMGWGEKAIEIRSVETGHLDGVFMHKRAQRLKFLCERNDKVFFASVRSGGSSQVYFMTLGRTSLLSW

MAPK3 (human) = MAPK3 (human) (UniProt P27361)
MAPK4 (human) = MAPK4 (human) (UniProt P31152)
MINK1 (human) = MINK1 (human) (UniProt Q8N4C8)
MUSK (human) = MUSK (human) (UniProt O15146)
MYLK3 (human) = MYLK3 (human) (UniProt Q32MK0)
MYO3A (human) = MYO3A (human) (UniProt Q8NEV4)
NEK4 (human) = NEK4 (human) (UniProt P51957)
PRKD2 (human) = PRKD2 (human) (UniProt Q9BZL6)
PTK2 (human) = PTK2 (human) (UniProt Q05397)
RPS6KA6 KD1 (human) = RPS6KA6 KD1 (human) (UniProt Q9UK32)
SGK110 (human) = SGK110 (human) (UniProt P0C264)
SLK (human) = SLK (human) (UniProt Q9H2G2)
SLK (human), sequence (Q9H2G2 whole entry, looked up): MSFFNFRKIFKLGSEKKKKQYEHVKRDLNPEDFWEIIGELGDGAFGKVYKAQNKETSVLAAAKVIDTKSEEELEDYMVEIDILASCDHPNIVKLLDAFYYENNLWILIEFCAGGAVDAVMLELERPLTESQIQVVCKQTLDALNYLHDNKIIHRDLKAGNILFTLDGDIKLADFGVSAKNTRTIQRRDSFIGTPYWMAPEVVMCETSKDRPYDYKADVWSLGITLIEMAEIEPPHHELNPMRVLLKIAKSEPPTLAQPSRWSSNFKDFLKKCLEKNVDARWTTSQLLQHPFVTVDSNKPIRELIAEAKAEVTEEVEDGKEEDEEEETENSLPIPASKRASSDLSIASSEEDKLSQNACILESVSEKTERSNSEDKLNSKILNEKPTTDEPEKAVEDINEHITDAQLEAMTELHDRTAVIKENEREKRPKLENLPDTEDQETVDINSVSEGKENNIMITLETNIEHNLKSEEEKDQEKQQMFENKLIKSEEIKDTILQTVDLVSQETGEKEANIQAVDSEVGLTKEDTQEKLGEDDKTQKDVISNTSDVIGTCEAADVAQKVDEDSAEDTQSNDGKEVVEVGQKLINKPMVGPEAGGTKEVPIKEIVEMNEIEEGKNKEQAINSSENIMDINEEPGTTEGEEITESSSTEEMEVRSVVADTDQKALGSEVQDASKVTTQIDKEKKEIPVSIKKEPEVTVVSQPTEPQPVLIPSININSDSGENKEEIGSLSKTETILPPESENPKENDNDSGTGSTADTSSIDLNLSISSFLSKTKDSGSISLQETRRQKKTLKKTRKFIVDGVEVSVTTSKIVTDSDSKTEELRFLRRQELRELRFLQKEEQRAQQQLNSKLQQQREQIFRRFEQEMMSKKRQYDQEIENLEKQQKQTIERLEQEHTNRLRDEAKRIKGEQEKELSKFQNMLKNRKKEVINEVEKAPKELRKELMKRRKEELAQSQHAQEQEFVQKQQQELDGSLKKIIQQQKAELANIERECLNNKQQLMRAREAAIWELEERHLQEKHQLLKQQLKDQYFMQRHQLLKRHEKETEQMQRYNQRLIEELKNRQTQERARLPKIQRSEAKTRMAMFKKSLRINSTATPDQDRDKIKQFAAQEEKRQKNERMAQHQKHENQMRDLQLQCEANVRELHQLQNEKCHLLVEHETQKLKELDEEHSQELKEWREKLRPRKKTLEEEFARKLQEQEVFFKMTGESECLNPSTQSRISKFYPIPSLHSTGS

STK10 (human) = STK10 (human) (UniProt O94804)
STK32A (human) = STK32A (human) (UniProt Q8WU08)
STK38 (human) = STK38 (human) (UniProt Q15208)
STK4 (human) = STK4 (human) (UniProt Q13043)
TEK (human) = TEK (human) (UniProt Q02763)
TTK (human) = TTK (human) (UniProt P33981)
ULK1 (human) = ULK1 (human) (UniProt O75385)
ULK3 (human) = ULK3 (human) (UniProt Q6PHR2)

Compound	kinase still bound, per cent of control (ANKK1 (human))	kinase still bound, per cent of control (AURKC (human))	kinase still bound, per cent of control (BMPR2 (human))	kinase still bound, per cent of control (BRSK2 (human))	kinase still bound, per cent of control (CDK4 CCND3 (human))	kinase still bound, per cent of control (CDKL5 (human))	kinase still bound, per cent of control (CSNK1G1 (human))	kinase still bound, per cent of control (CSNK2A2 (human))	kinase still bound, per cent of control (DAPK1 (human))	kinase still bound, per cent of control (DDR2 (human))	kinase still bound, per cent of control (DYRK2 (human))	kinase still bound, per cent of control (EGFR (human))	kinase still bound, per cent of control (EPHA7 (human))	kinase still bound, per cent of control (GSK3B (human))	kinase still bound, per cent of control (HIPK1 (human))	kinase still bound, per cent of control (HUNK (human))	kinase still bound, per cent of control [1]	kinase still bound, per cent of control (KDR (human))	kinase still bound, per cent of control (MAP3K5 (human))	kinase still bound, per cent of control (MAP4K4 (human))	further results
COc1ccc(N(C(=O)Oc2c(C)cccc2C)c2ccnc(Nc3ccc(N4CCN(C)CC4)cc3)n2)c(OC)c1	100%	9.9%	0.2%	81%	26%	100%	95%	95%	73%	0%	80%	0.4%	26%	72%	100%	9%	0.25%	15%	100%	3.7%	kinase still bound, per cent of control (MAPK3 (human)): 100%; kinase still bound, per cent of control (MAPK4 (human)): 100%; kinase still bound, per cent of control (MINK1 (human)): 14%; kinase still bound, per cent of control (MUSK (human)): 43%; kinase still bound, per cent of control (MYLK3 (human)): 100%; kinase still bound, per cent of control (MYO3A (human)): 69%; kinase still bound, per cent of control (NEK4 (human)): 74%; kinase still bound, per cent of control (PRKD2 (human)): 6.4%; kinase still bound, per cent of control (PTK2 (human)): 32%; kinase still bound, per cent of control (RPS6KA6 KD1 (human)): 40%; kinase still bound, per cent of control (SGK110 (human)): 44%; kinase still bound, per cent of control (SLK (human)): 0.1%; kinase still bound, per cent of control (STK10 (human)): 0%; kinase still bound, per cent of control (STK32A (human)): 8.2%; kinase still bound, per cent of control (STK38 (human)): 100%; kinase still bound, per cent of control (STK4 (human)): 42%; kinase still bound, per cent of control (TEK (human)): 0.3%; kinase still bound, per cent of control (TTK (human)): 42%; kinase still bound, per cent of control (ULK1 (human)): 31%; kinase still bound, per cent of control (ULK3 (human)): 59%
O=C1NC(=O)/C(=C/c2ccc3nccc(-c4ccncc4)c3c2)S1	47%	56%	100%	91%	100%	76%	20%	1.2%	6.4%	63%	5.4%	58%	88%	66%	6.9%	59%	0%	81%	58%	41% and 47%	kinase still bound, per cent of control (MAPK3 (human)): 100%; kinase still bound, per cent of control (MAPK4 (human)): 100%; kinase still bound, per cent of control (MINK1 (human)): 49%; kinase still bound, per cent of control (MUSK (human)): 92%; kinase still bound, per cent of control (MYLK3 (human)): 6.2%; kinase still bound, per cent of control (MYO3A (human)): 85%; kinase still bound, per cent of control (NEK4 (human)): 96%; kinase still bound, per cent of control (PRKD2 (human)): 90%; kinase still bound, per cent of control (PTK2 (human)): 100%; kinase still bound, per cent of control (RPS6KA6 KD1 (human)): 45%; kinase still bound, per cent of control (SGK110 (human)): 100%; kinase still bound, per cent of control (SLK (human)): 0.3%; kinase still bound, per cent of control (STK10 (human)): 0.1%; kinase still bound, per cent of control (STK32A (human)): 83%; kinase still bound, per cent of control (STK38 (human)): 61%; kinase still bound, per cent of control (STK4 (human)): 81%; kinase still bound, per cent of control (TEK (human)): 98%; kinase still bound, per cent of control (TTK (human)): 19%; kinase still bound, per cent of control (ULK1 (human)): 74%; kinase still bound, per cent of control (ULK3 (human)): 39%
